Converted amounts (≈) assume the structure as drawn.
Tests used:
[1] = water solubility in aqueous buffer under physiological conditions; settings: for solubility: aqueous buffer
[2] = oral bioavailability of phosphate prodrug versus active drug; type: in vivo; settings: prodrug with progroup —CH2—O—P(O)(OH)2 compared with Compound 1

solubility [1] [µg/mL]	solubility relative to active drug (Compound 1) ([1]; aqueous buffer under physiological conditions, prodrug vs Compound 1)	oral bioavailability [2]	SMILES
1 to 2 (≈ 2.13 to 4.25 µM)			COc1cc(Nc2ncc(F)c(Nc3ccc4c(n3)NC(=O)C(C)(C)O4)n2)cc(OC)c1OC [Compound 1, N4-(2,2-Dimethyl-3-oxo-4H-5-pyrid[1,4]oxazin-6-yl)-5-fluoro-N2-(3,4,5-trimethoxyphenyl)-2,4-pyrimidinediamine]
> 5000	approximately 2000 times greater	increased dramatically	COc1cc(Nc2ncc(F)c(Nc3ccc4c(n3)N(COP(=O)(O)O)C(=O)C(C)(C)O4)n2)cc(OC)c1OC [Compound 4]
